pIC50: −log10 of the molar value.
Key:
Pancreatic elastase = Pancreatic elastase (Sus scrofa, UniProt P08419+P00772); assay: Inhibition of pig pancreatic elastase; type: protein assay
[1] = Inhibition of bovine alpha chymotrypsin; parameters: species or system Bos taurus
[2] = Inhibition of pig pancreatic trypsin; parameters: species or system Sus scrofa

| Structure (SMILES) | IC50 (Pancreatic elastase) | pIC50 [1] | pIC50 [2] |
| --- | --- | --- | --- |
| C/C=C1\NC(=O)[C@@H](NC(=O)[C@H](CCC(N)=O)NC(=O)CCC)[C@@H](C)OC(=O)[C@H](C(C)C)NC(=O)[C@H](Cc2ccc(O)cc2)N(C)C(=O)[C@H](Cc2ccccc2)N2C(=O)[C@H](CC[C@H]2O)NC1=O [SOMAMIDE B] | 4.2 µM | 8.02 | < 4.52 |
| CC(=O)N1CCC[C@H]1C(=O)N[C@H](C(=O)N[C@@H]1C(=O)N[C@@H](CC(C)C)C(=O)N[C@H]2CC[C@@H](O)N(C2=O)[C@@H](Cc2ccccc2)C(=O)N(C)[C@@H](Cc2ccc(O)cc2)C(=O)N[C@@H](C(C)C)C(=O)O[C@@H]1C)[C@@H](C)O [KEMPOPEPTIN A] | 2.6 µM | 6.49 | < 4.17 |
| C/C=C1\NC(=O)[C@@H](NC(=O)[C@H](CCC(N)=O)NC(=O)CCCCC)[C@@H](C)OC(=O)[C@H](C(C)C)NC(=O)[C@H](Cc2ccc(O)cc2)N(C)C(=O)[C@H](Cc2ccccc2)N2C(=O)[C@H](CC[C@H]2O)NC1=O [LYNGBYASTATIN 7] | – | – | < 4.52 |
| CCCC(=O)N[C@H](C(=O)N[C@@H]1C(=O)N[C@@H](CCCCN)C(=O)N[C@H]2CC[C@@H](O)N(C2=O)[C@@H]([C@@H](C)CC)C(=O)N(C)[C@@H](Cc2ccc(OC)c(Br)c2)C(=O)N[C@@H](C(C)C)C(=O)O[C@@H]1C)C(C)C [KEMPOPEPTIN B] | > 67 µM | < 4.17 | 5.08 |
